# Data from ChEMBL document CHEMBL1154885, “Heat shock protein 90: inhibitors in clinical trials” (J Med Chem, 2010).
# What was measured:
# [1] = AUC in tumor of mouse bearing human WM266.4 cells at 50 mg/kg, iv; type: ADME, organism-based, Neoplasm; design: dose 50 mg/kg, route intravenous
# [2] = Cmax in tumor of mouse bearing human WM266.4 cells at 50 mg/kg, iv; type: ADME, organism-based, Neoplasm; design: dose 50 mg/kg, route intravenous; conditions: read-out: Cmax_tumor
# BT-474 = experiment: Antitumor activity against human BT474 cells xenografted in mouse at 50 mg/kg, ip; type: functional; conditions: BT-474, ip, route intraperitoneal, read-out: TGI
# [3] = Drug level in tumor of mouse bearing human WM266.4 cells at 50 mg/kg, ip administered once daily for 5 days measured after 24 hrs after final dose; type: ADME, organism-based, Neoplasm; design: dose 50 mg/kg, route intraperitoneal; conditions: read-out: Drug uptake
# [4] = Apparent volume of distribution in tumor of mouse bearing human WM266.4 cells at 50 mg/kg, ip; type: ADME, organism-based, Neoplasm; design: dose 50 mg/kg, route intraperitoneal; conditions: in vivo
# [5] = Clearance in tumor of mouse bearing human WM266.4 cells at 50 mg/kg, iv; type: ADME, organism-based, Neoplasm; design: dose 50 mg/kg, route intravenous; conditions: in vivo
# [6] = Clearance in tumor of mouse bearing human WM266.4 cells at 50 mg/kg, ip; type: ADME, organism-based, Neoplasm; design: dose 50 mg/kg, route intraperitoneal; conditions: in vivo
# [7] = AUC in plasma of mouse bearing human WM266.4 cells at 50 mg/kg, ip; type: ADME, organism-based; design: dose 50 mg/kg, route intraperitoneal
# [8] = Half life in plasma of mouse bearing human WM266.4 cells at 50 mg/kg, ip; type: ADME, organism-based; design: dose 50 mg/kg, route intraperitoneal
# [9] = Metabolic stability in mouse liver microsomes assessed as drug remaining after 30 mins; type: ADME, Microsome; conditions: read-out: Stability
# Plasma [10] = experiment: Half life in plasma of mouse bearing human WM266.4 cells at 50 mg/kg, iv; type: ADME, organism-based; design: dose 50 mg/kg, route intravenous; conditions: in vivo
# Mus musculus [11] = experiment: Toxicity in mouse assessed as body weight loss at 70 mg/kg, ip after 8 days; type: organism-based; design: dose 70 mg/kg, route intraperitoneal; conditions: in vivo, 192 h
# Plasma [12] = experiment: Apparent volume of distribution in plasma of mouse bearing human WM266.4 cells at 50 mg/kg, iv; type: ADME, organism-based; design: dose 50 mg/kg, route intravenous; conditions: in vivo
# [13] = Apparent volume of distribution in tumor of mouse bearing human WM266.4 cells at 50 mg/kg, iv; type: ADME, organism-based, Neoplasm; design: dose 50 mg/kg, route intravenous; conditions: read-out: Vz
# [14] = Cmax in tumor of mouse bearing human WM266.4 cells at 50 mg/kg, ip; type: ADME, organism-based, Neoplasm; design: dose 50 mg/kg, route intraperitoneal; conditions: read-out: Cmax_tumor
# [15] = Antitumor activity against human U87MG cells xenografted in mouse assessed as tumor regression at 50 mg/kg, ip; type: functional, U-87MG ATCC; conditions: route intraperitoneal
# [16] = Clearance in plasma of mouse bearing human WM266.4 cells at 50 mg/kg, ip; type: ADME, organism-based; design: dose 50 mg/kg, route intraperitoneal
# [17] = Half life in tumor of mouse bearing human WM266.4 cells at 50 mg/kg, iv; type: ADME, organism-based, Neoplasm; design: dose 50 mg/kg, route intravenous
# Plasma [18] = experiment: Apparent volume of distribution in plasma of mouse bearing human WM266.4 cells at 50 mg/kg, ip; type: ADME, organism-based; design: dose 50 mg/kg, route intraperitoneal; conditions: in vivo
# [19] = Half life in tumor of mouse bearing human WM266.4 cells at 50 mg/kg, ip; type: ADME, organism-based, Neoplasm; design: dose 50 mg/kg, route intraperitoneal
# Plasma [20] = experiment: Clearance in plasma of mouse bearing human WM266.4 cells at 50 mg/kg, iv; type: ADME, organism-based; design: dose 50 mg/kg, route intravenous; conditions: in vivo
# [21] = AUC in tumor of mouse bearing human WM266.4 cells at 50 mg/kg, ip; type: ADME, organism-based, Neoplasm; design: dose 50 mg/kg, route intraperitoneal
# Mus musculus [22] = experiment: Hepatic blood flow in mouse bearing human WM266.4 cells at 50 mg/kg, ip; type: ADME, organism-based, Liver; design: dose 50 mg/kg, route intraperitoneal; conditions: in vivo
# [23] = Cmax in plasma of mouse bearing human WM266.4 cells at 50 mg/kg, ip; type: ADME, organism-based; design: dose 50 mg/kg, route intraperitoneal
# [24] = Cmax in plasma of mouse bearing human WM266.4 cells at 50 mg/kg, iv; type: ADME, organism-based; design: dose 50 mg/kg, route intravenous
# [25] = Toxicity in mouse assessed as maximum tolerated dose; type: organism-based; conditions: in vivo
# [26] = AUC in plasma of mouse bearing human WM266.4 cells at 50 mg/kg, iv; type: ADME, organism-based; design: dose 50 mg/kg, route intravenous
# [27] = Metabolic stability in human liver microsomes assessed as drug remaining after 30 mins; type: ADME, Microsome; conditions: read-out: Stability
compound,measurement,setting,value
CCNC(=O)c1noc(-c2cc(C(C)C)c(O)cc2O)c1-c1ccc(CN2CCOCC2)cc1 [LUMINESPIB],AUC,[1],70 µM·h
same,Cmax,[2],14 µM
same,inhibition in vivo at 50 mg/kg,BT-474,79%
same,concentration at 24 h,[3],6.8 µM
same,Vz,[4],0.883 L
same,CL,[5],0.02 L/h
same,CL,[6],0.41 L/h
same,AUC,[7],26 µM·h
same,half-life,[8],1 h
same,remaining at 0.5 h,[9],31%
same,t1/2,Plasma [10],1 h
same,Activity,Mus musculus [11],10%
same,Vz,Plasma [12],0.875 L
same,Vd,[13],0.44 L
same,Cmax,[14],6 µM
same,Activity,[15],58%
same,CL/F,[16],1.37 mL/min
same,half-life,[17],15 h
same,Vz,Plasma [18],0.077 L
same,half-life,[19],15 h
same,CL,Plasma [20],0.143 L/h
same,AUC,[21],36 µM·h
same,LBF,Mus musculus [22],108 mL/h
same,Cmax,[23],53 µM
same,Cmax,[24],49 µM
same,MTD,[25],50 mg/kg
same,AUC,[26],15 µM·h
same,remaining at 0.5 h,[27],41%
